How the values were obtained:
Melatonin receptor = Melatonin receptor (Gallus gallus, UniProt P49288+P51050+P49285); experiment: Binding affinity towards melatonin receptor, determined in chicken brain membranes using [2-125I]melatonin; type: cell membranes, Membrane
Melanophore [1] = experiment: Effective concentration required to produce 50% of the maximal pigment aggregation in Xenopus laevis dermal melanophore cell line; type: functional, cell-based, frog; conditions: Xenopus laevis, Melanophore
Melanophore [2] = experiment: Inhibitory concentration against melatonin-induced pigment aggregation by 50% in Xenopus laevis dermal melanophore cell line; type: functional, cell-based, frog
Melanophore [3] = experiment: Effective concentration required to produce 50% of the maximal pigment aggregation in Xenopus laevis dermal melanophore cell line; No agonist effect detected at 100 uM; type: functional, cell-based, frog
Melanophore [4] = experiment: Inhibitory concentration against melatonin-induced pigment aggregation by 50% in Xenopus laevis dermal melanophore cell line; Antagonism detected at 100 uM but IC50 not calculated; type: functional, cell-based, frog

| SMILES | Ki (Melatonin receptor) [nM] | EC50 (Melanophore [1]) [nM] | IC50 (Melanophore [2]) | EC50 (Melanophore [3]) | IC50 (Melanophore [4]) |
| --- | --- | --- | --- | --- | --- |
| CCC(=O)NCC1CCCc2c1c1ccccc1n2C (stereo unspecified) | 204 | 862 | Not Active |  |  |
| CCC(=O)NCC1CCCc2c1c1cc(OC)ccc1n2C (stereo unspecified) | 1.44 | 0.31 | Not Active |  |  |
| Cn1c2c(c3cc(OC(F)(F)F)ccc31)C(CNC(=O)C1CCC1)CCC2 (stereo unspecified) | 1240 |  | 41 µM | Not Active |  |
| Cn1c2c(c3ccccc31)C(CNC(=O)C1CCC1)CC2 (stereo unspecified) | 5700 |  | 50 µM | Not Active |  |
| COc1ccc2c(c1)c1c(n2C)CCCCC1CNC(C)=O (stereo unspecified) | 24 | 258 | 10 µM |  |  |
| Cn1c2c(c3ccccc31)C(CNC(=O)C1CC1)CCC2 (stereo unspecified) | 4460 |  | 15 µM | Not Active |  |
| CCC(=O)NCC1CCCc2c1c1cc(OC(F)(F)F)ccc1n2C (stereo unspecified) | 40.2 | 733 | 6 µM |  |  |
| CC(=O)NCC1CCc2c1c1ccccc1n2C (stereo unspecified) | 516 | 6360 | Not Active |  |  |
| Cn1c2c(c3cc(Cl)ccc31)C(CNC(=O)C1CC1)CCC2 (stereo unspecified) | 131.6 | 1510 | 33 µM |  |  |
| CC(=O)NCC1CCCc2c1c1cc(Cl)ccc1n2C (stereo unspecified) | 2.12 | 5.2 | Not Active |  |  |
| CCCC(=O)NCC1CCc2c1c1cc(OC)ccc1n2C (stereo unspecified) | 23 | 335 | 14 µM |  |  |
| CCCC(=O)NCC1CCCc2c1c1cc(OC)ccc1n2C (stereo unspecified) | 0.378 | 0.44 | Not Active |  |  |
| CCCC(=O)NCC1CCc2c1c1ccccc1n2C (stereo unspecified) | 239 | 2630 |  |  | Antagonist |
| CC(=O)NCC1CCCc2c1c1cc(C)ccc1n2C (stereo unspecified) | 16.1 | 108 | Not Active |  |  |
| Cn1c2c(c3ccccc31)C(CNC(=O)C1CCC1)CCCC2 (stereo unspecified) | 1690 |  | 44 µM | Not Active |  |
| CCC(=O)NCC1CCCc2c1c1cc(C)ccc1n2C (stereo unspecified) | 7.66 | 128 | Not Active |  |  |
| CCCCC(=O)NCC1CCCc2c1c1ccccc1n2C (stereo unspecified) | > 10000 |  | 17 µM | Not Active |  |
| CCCCC(=O)NCC1CCCCc2c1c1ccccc1n2C (stereo unspecified) | 8300 |  | 42 µM | Not Active |  |

| SMILES | Ki (Melatonin receptor) [nM] | EC50 (Melanophore [1]) [nM] | IC50 (Melanophore [2]) | EC50 (Melanophore [3]) | IC50 (Melanophore [4]) |
| --- | --- | --- | --- | --- | --- |
| CCC(=O)NCC1CCCCc2c1c1ccccc1n2C (stereo unspecified) | 129 |  |  | Not Active | Antagonist |
| Cc1ccc2c(c1)c1c(n2C)CCCC1CNC(=O)C1CCC1 (stereo unspecified) | 555 | 1450 | Not Active |  |  |
| COc1ccc2c(c1)c1c(n2C)CCCCC1CNC(=O)C1CC1 (stereo unspecified) | 44.7 | 470 | 43 µM |  |  |
| CCC(=O)NCC1CCCc2c1c1cc(CC)ccc1n2C (stereo unspecified) | 27.5 | 305 | 62 µM |  |  |
| COc1ccc2c(c1)c1c(n2C)CCC1CNC(=O)C1CC1 (stereo unspecified) | 459 |  | 11 µM | Not Active |  |
| CCC(=O)NC1CCc2[nH]c3ccc(OC)cc3c2C1 (stereo unspecified) |  | 7 | Not Active |  |  |
| COc1ccc2[nH]c3c(c2c1)CC(NC(=O)C1CC1)CC3 (stereo unspecified) | 143 | 195 | Not Active |  |  |
| O=C(NC1CCc2[nH]c3ccccc3c2C1)C(F)(F)F (stereo unspecified) |  |  | 43 µM | Not Active |  |
| CCCC(=O)NC1CCc2[nH]c3ccc(OC)cc3c2C1 (stereo unspecified) |  | 25 | Not Active |  |  |
| O=C(CBr)NC1CCc2[nH]c3ccccc3c2C1 (stereo unspecified) |  |  | 39 µM | Not Active |  |
| CCCC(=O)NCC1CCCCc2c1c1cc(OC)ccc1n2C (stereo unspecified) | 10.3 | 140 |  |  | Antagonist |
| COc1ccc2c(c1)c1c(n2C)CCCC1CNC(=O)C1CCC1 (stereo unspecified) | 271 | 139 | Not Active |  |  |
| Cn1c2c(c3ccccc31)C(CNC(=O)C(F)(F)F)CCCC2 (stereo unspecified) | > 10000 |  | Not Active | Not Active |  |
| CCC(=O)NCC1CCc2c1c1ccccc1n2C (stereo unspecified) | 272 | 4040 |  |  | Antagonist |
| COc1ccc2c(c1)c1c(n2C)CCCCC1CNC(=O)C1CCC1 (stereo unspecified) | 144.8 |  | 18 µM | Not Active |  |
| CC(=O)NCC1CCCc2c1c1cc(OC(F)(F)F)ccc1n2C (stereo unspecified) | 141.7 | 2030 | 42 µM |  |  |
| CCCCC(=O)NCC1CCCc2c1c1cc(OC)ccc1n2C (stereo unspecified) | 82 | 132 | Not Active |  |  |
